Laboratory results: PubChem BioAssay (NCI)
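Values below derive from 48-hour exposures of cells grown in 96-well plates, with endpoints linearly interpolated between the two concentrations bracketing the appropriate inhibition level. The concentration for 50% growth inhibition is given as GI50. TGI is the concentration that stops growth completely.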

Tests used:
Assay in all cases: growth of human tumour cells (NCI), 48 h
TK-10 renal = test system: TK-10 renal
RXF 393 renal = test system: RXF 393 renal
IGROV1 ovarian = test system: IGROV1 ovarian
LOX IMVI melanoma = test system: LOX IMVI melanoma
NCI-H522 lung = test system: NCI-H522 lung
PC-3 prostate = test system: PC-3 prostate
UO-31 renal = test system: UO-31 renal
SK-MEL-2 melanoma = test system: SK-MEL-2 melanoma
HT29 colon = test system: HT29 colon
U251 CNS = test system: U251 CNS
CAKI-1 renal = test system: CAKI-1 renal
NCI-H460 lung = test system: NCI-H460 lung
COLO 205 colon = test system: COLO 205 colon
HOP-92 NSCLC = test system: HOP-92 NSCLC
SF-268 CNS = test system: SF-268 CNS
T-47D breast = test system: T-47D breast
SNB-75 CNS = test system: SNB-75 CNS
EKVX NSCLC = test system: EKVX NSCLC
CCRF-CEM leukemia = test system: CCRF-CEM leukemia
K-562 leukemia = test system: K-562 leukemia
MCF7 breast = test system: MCF7 breast
HOP-62 NSCLC = test system: HOP-62 NSCLC
SF-295 CNS = test system: SF-295 CNS
UACC-257 melanoma = test system: UACC-257 melanoma
DU-145 prostate = test system: DU-145 prostate
UACC-62 melanoma = test system: UACC-62 melanoma
KM12 colon = test system: KM12 colon
NCI-H23 lung = test system: NCI-H23 lung
HCC-2998 colon = test system: HCC-2998 colon
SR leukemia = test system: SR leukemia
OVCAR-4 ovarian = test system: OVCAR-4 ovarian
786-0 renal = test system: 786-0 renal
OVCAR-5 ovarian = test system: OVCAR-5 ovarian
OVCAR-3 ovarian = test system: OVCAR-3 ovarian
SK-OV-3 ovarian = test system: SK-OV-3 ovarian
SK-MEL-5 melanoma = test system: SK-MEL-5 melanoma
HCT-15 colon = test system: HCT-15 colon
A549 NSCLC = test system: A549 NSCLC
NCI/ADR-RES ovarian = test system: NCI/ADR-RES ovarian
BT-549 breast = test system: BT-549 breast
MDA-MB-231 breast = test system: MDA-MB-231 breast
MALME-3M melanoma = test system: MALME-3M melanoma
M14 melanoma = test system: M14 melanoma
HL-60(TB) leukemia = test system: HL-60(TB) leukemia
SNB-19 CNS = test system: SNB-19 CNS
NCI-H226 lung = test system: NCI-H226 lung
HCT-116 colon = test system: HCT-116 colon
RPMI-8226 leukemia = test system: RPMI-8226 leukemia
SW-620 colon = test system: SW-620 colon
SN12C renal = test system: SN12C renal
MDA-MB-435 = test system: MDA-MB-435
HS 578T breast = test system: HS 578T breast
OVCAR-8 ovarian = test system: OVCAR-8 ovarian
SF-539 CNS = test system: SF-539 CNS
SK-MEL-28 melanoma = test system: SK-MEL-28 melanoma
A498 renal = test system: A498 renal

In the case of `O=C1C2=C(C(=O)c3cnccc31)C1C=CC2CC1` (centres undefined), the GI50 (TK-10 renal) is reported as 5.54 µM, the TGI (TK-10 renal) is reported as 10.4 µM and the GI50 (RXF 393 renal) is reported as 1.51 µM. For the same molecule, the TGI (RXF 393 renal) was 2.85 µM, the GI50 (IGROV1 ovarian) was 2.2 µM and the TGI (IGROV1 ovarian) was 4.31 µM. For the same molecule, the GI50 (LOX IMVI melanoma) was 0.773 µM, the TGI (LOX IMVI melanoma) was 2.19 µM and the GI50 (NCI-H522 lung) was 1.96 µM. For the same molecule, the TGI (NCI-H522 lung) was 4.1 µM, the GI50 (PC-3 prostate) was 2.15 µM and the GI50 (UO-31 renal) was 1.95 µM. The TGI (UO-31 renal) was 3.69 µM, the GI50 (SK-MEL-2 melanoma) was 1.89 µM and the TGI (SK-MEL-2 melanoma) was 3.52 µM. The GI50 (HT29 colon) was 2.58 µM, the TGI (HT29 colon) was 5.7 µM and the GI50 (U251 CNS) was 1.76 µM. For the same molecule, the TGI (U251 CNS) was 3.19 µM, the GI50 (CAKI-1 renal) was 3.57 µM and the TGI (CAKI-1 renal) was 9.33 µM. The GI50 (NCI-H460 lung) was 8.48 µM, the TGI (NCI-H460 lung) was 21.7 µM and the GI50 (COLO 205 colon) was 2.32 µM. For the same molecule, the TGI (COLO 205 colon) was 4.62 µM, the GI50 (HOP-92 NSCLC) was 2.62 µM and the TGI (HOP-92 NSCLC) was 8.8 µM. The GI50 (SF-268 CNS) was 1.9 µM, the TGI (SF-268 CNS) was 3.84 µM and the GI50 (T-47D breast) was 0.374 µM. For the same molecule, the TGI (T-47D breast) was 1.5 µM, the GI50 (SNB-75 CNS) was 1.34 µM and the TGI (SNB-75 CNS) was 2.73 µM. For the same molecule, the GI50 (EKVX NSCLC) was 1.92 µM, the TGI (EKVX NSCLC) was 4.13 µM and the GI50 (CCRF-CEM leukemia) was 0.66 µM. For the same molecule, the GI50 (K-562 leukemia) was 1.64 µM, the GI50 (MCF7 breast) was 1.81 µM and the TGI (MCF7 breast) was 3.74 µM. For the same molecule, the GI50 (HOP-62 NSCLC) was 2.91 µM, the TGI (HOP-62 NSCLC) was 6.6 µM and the GI50 (SF-295 CNS) was 5.36 µM. The TGI (SF-295 CNS) was 12.4 µM, the GI50 (UACC-257 melanoma) was 1.72 µM and the TGI (UACC-257 melanoma) was 3.17 µM. The GI50 (DU-145 prostate) was 1.8 µM, the TGI (DU-145 prostate) was 3.24 µM and the GI50 (UACC-62 melanoma) was 1.92 µM. For the same molecule, the TGI (UACC-62 melanoma) was 3.4 µM, the GI50 (KM12 colon) was 2.65 µM and the TGI (KM12 colon) was 6.66 µM. For the same molecule, the GI50 (NCI-H23 lung) was 1.82 µM, the TGI (NCI-H23 lung) was 4.02 µM and the GI50 (HCC-2998 colon) was 8.74 µM. It also gave a TGI (HCC-2998 colon) of 21.2 µM, a GI50 (SR leukemia) of 3.22 µM and a TGI (SR leukemia) greater than 21.2 µM. It also gave a GI50 (OVCAR-4 ovarian) of 0.316 µM, a TGI (OVCAR-4 ovarian) of 1.15 µM and a GI50 (786-0 renal) of 1.95 µM. It also gave a TGI (786-0 renal) of 3.37 µM, a GI50 (OVCAR-5 ovarian) of 1.93 µM and a TGI (OVCAR-5 ovarian) of 3.71 µM. It also gave a GI50 (OVCAR-3 ovarian) of 1.85 µM, a TGI (OVCAR-3 ovarian) of 3.66 µM and a GI50 (SK-OV-3 ovarian) of 5.58 µM. The TGI (SK-OV-3 ovarian) was 10.4 µM, the GI50 (SK-MEL-5 melanoma) was 1.84 µM and the TGI (SK-MEL-5 melanoma) was 3.85 µM. It also gave a GI50 (HCT-15 colon) of 2.28 µM, a TGI (HCT-15 colon) of 4.94 µM and a GI50 (A549 NSCLC) of 3.67 µM. The TGI (A549 NSCLC) was 8.73 µM, the GI50 (NCI/ADR-RES ovarian) was 1.51 µM and the TGI (NCI/ADR-RES ovarian) was 3.5 µM. It also gave a GI50 (BT-549 breast) of 5.86 µM, a TGI (BT-549 breast) of 10.3 µM and a GI50 (MDA-MB-231 breast) of 2.45 µM. It also gave a TGI (MDA-MB-231 breast) of 7.61 µM, a GI50 (MALME-3M melanoma) of 2.12 µM and a TGI (MALME-3M melanoma) of 4.45 µM. For the same molecule, the GI50 (M14 melanoma) was 1.94 µM, the TGI (M14 melanoma) was 3.41 µM and the GI50 (HL-60(TB) leukemia) was 1.25 µM. The TGI (HL-60(TB) leukemia) was 4.63 µM, the GI50 (SNB-19 CNS) was 5.03 µM and the TGI (SNB-19 CNS) was 9.41 µM. It also gave a GI50 (NCI-H226 lung) of 5.74 µM, a TGI (NCI-H226 lung) of 16.2 µM and a GI50 (HCT-116 colon) of 1.65 µM. The TGI (HCT-116 colon) was 3.03 µM, the GI50 (RPMI-8226 leukemia) was 2.28 µM and the TGI (RPMI-8226 leukemia) was 5.59 µM. For the same molecule, the GI50 (SW-620 colon) was 1.85 µM, the TGI (SW-620 colon) was 3.44 µM and the GI50 (SN12C renal) was 1.69 µM. The TGI (SN12C renal) was 3.1 µM, the GI50 (MDA-MB-435) was 1.8 µM and the TGI (MDA-MB-435) was 3.55 µM. For the same molecule, the GI50 (HS 578T breast) was 2.77 µM, the TGI (HS 578T breast) was 6.6 µM and the GI50 (OVCAR-8 ovarian) was 0.715 µM. The TGI (OVCAR-8 ovarian) was 2.09 µM, the GI50 (SF-539 CNS) was 2.27 µM and the TGI (SF-539 CNS) was 4.5 µM. For the same molecule, the GI50 (SK-MEL-28 melanoma) was 2.02 µM, the TGI (SK-MEL-28 melanoma) was 3.69 µM and the GI50 (A498 renal) was 16.1 µM. The TGI (A498 renal) was 29.7 µM.
